In patent US6291683A, “N-arloxyethyl-alkylamines for the treatment of depression” (American Home Products Corp, priority 2000, dated 2001):
pKi: −log10 of the molar value. Read-outs that look alike come from different tables or passages of the source.

Columns and labels:
5-HT1A cloned receptor = molecular target: T1, 5-HT1A cloned receptor (Homo sapiens, UniProt P08908); test: [35S]-GTPγS binding assay, 5-HT1A cloned receptor membrane fragments; assay type: biochemical; settings: maximum agonist response defined by excess 8-OH-DPAT
T1 construct: expressed in transfected cells
T1 sequence (P08908 1-422): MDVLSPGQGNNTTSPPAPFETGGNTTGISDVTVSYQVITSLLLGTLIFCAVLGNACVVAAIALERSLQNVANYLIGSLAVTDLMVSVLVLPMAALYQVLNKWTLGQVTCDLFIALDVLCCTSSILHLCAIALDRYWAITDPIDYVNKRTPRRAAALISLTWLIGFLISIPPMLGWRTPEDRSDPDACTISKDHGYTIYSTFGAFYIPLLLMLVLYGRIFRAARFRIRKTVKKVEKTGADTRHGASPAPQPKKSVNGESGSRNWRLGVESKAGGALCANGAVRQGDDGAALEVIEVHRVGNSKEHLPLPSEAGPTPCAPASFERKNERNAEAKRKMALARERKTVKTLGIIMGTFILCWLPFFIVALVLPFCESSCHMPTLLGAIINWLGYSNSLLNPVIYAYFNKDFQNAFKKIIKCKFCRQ

serotonin transporter = molecular target: T2, serotonin transporter (Rattus norvegicus, UniProt P31652); test: affinity for the serotonin transporter ([3H]-paroxetine binding, rat frontal cortical membranes); design: species or system rat (male Sprague-Dawley); settings: for inhibition at 0.1 µM: @ .1 μM, read-out: ST (% Inhib. @ .1 μM)
T2 construct: frontal cortical membranes prepared from male Sprague-Dawley rats; from tissue; host or cells: frontal cortex membranes, male Sprague-Dawley rats
T2 sequence (P31652 whole entry): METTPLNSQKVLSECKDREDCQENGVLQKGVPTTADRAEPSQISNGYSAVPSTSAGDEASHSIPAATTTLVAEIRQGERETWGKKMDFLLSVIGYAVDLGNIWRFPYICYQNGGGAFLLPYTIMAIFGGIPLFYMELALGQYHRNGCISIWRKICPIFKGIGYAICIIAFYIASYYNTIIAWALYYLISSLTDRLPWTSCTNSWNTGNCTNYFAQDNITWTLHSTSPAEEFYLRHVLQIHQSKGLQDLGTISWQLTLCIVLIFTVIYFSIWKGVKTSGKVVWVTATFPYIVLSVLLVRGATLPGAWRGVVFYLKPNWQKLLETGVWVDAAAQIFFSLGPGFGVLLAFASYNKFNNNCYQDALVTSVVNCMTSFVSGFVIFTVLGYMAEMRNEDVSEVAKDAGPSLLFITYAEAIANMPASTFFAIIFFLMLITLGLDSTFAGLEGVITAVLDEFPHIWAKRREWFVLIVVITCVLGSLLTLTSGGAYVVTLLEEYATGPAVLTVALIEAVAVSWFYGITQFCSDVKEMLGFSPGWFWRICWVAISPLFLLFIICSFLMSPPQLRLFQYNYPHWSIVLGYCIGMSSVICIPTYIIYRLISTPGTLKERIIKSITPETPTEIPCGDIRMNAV
Experimental: Briefly, frontal cortical membranes prepared from male Sprague-Dawley rats were incubated with ^3 H-paroxetine (0.1 nM) for 60 min at 25° C. […] All reactions are terminated by the addition of ice cold Tris buffer followed by rapid filtration using a Tom Tech filtration device to separate bound from free ^3 H-paroxetine.

human 5-HT1A receptor = molecular target: T3, human 5-HT1A receptor (Homo sapiens, UniProt P08908); test: 5-HT1A receptor binding ([3H]8-OH-DPAT displacement, membranes of 5-HT1A.CHO cells)
T3 sequence (P08908 1-422): T1 sequence (P08908 1-422)
Experimental: Cells were maintained in DMEN supplemented with 10% fetal calf serum, non-essential amino acids and penicillin/ streptomycin.
Cells were grown to 95-100% confluency as a monolayer before membranes were harvested for binding studies. Cells were gently scraped from the culture plates, transferred to centrifuge tubes, and washed twice by centrifugation (2000 rpm for 10 min., 4° C.) in buffer (50 mM Tris; pH 7.5). The resulting pellets were aliquoted and placed at -80° C. On the day of assay, the cells were thawed on ice, and resuspended in buffer. Studies were conducted using [^3 H]8-OH-DPAT as the radioligand. The binding assay was performed in 96 well microtiter plates in a final total volume of 250 μL of buffer.

[1] = read-out: 5-HT1A (Ki), [3H]8-OH-DPAT 1.5 nM, 30 min, room temperature, CHO cell membranes
[2] = [3H]-paroxetine 0.1 nM, 60 min, 25° C

Compound | Emax (5-HT1A cloned receptor) [%] | pKi (human 5-HT1A receptor; [1]) | pKi (serotonin transporter) | pKi (human 5-HT1A receptor) | inhibition at 0.1 µM (serotonin transporter; [2]) [%] | also measured
COc1ccccc1OC(C)CNCCCc1c[nH]c2ccc(F)cc12 (stereo not drawn) [Example 17, [3-(5-Fluoro-1H-indol-3-yl)-propyl]-[2-(2-methoxy-phenoxy)propyl]amine] | 97.5 | 7.84 | – | – | – | pKi (serotonin transporter; read-out: ST (Ki), [3H]-paroxetine 0.1 nM, 60 min, 25° C, Ki converted from IC50 (Cheng and Prusoff)): 7.80
Fc1ccc2[nH]cc(CCCNCCOc3ccc4c(c3)CCC4)c2c1 [Example 14] | – | – | 7.25 | 6.80 | – | –
[3-(5-Fluoro-1H-indol-3-yl)-propyl]-[2-(2-methoxy-phenoxy)-2-phenyl-ethyl]- amine [Example 16] | – | 7.36 | – | – | – | pKi (serotonin transporter; [3H]-paroxetine 0.1 nM, 60 min, 25° C, Ki converted from IC50 (Cheng and Prusoff), read-out: ST (Ki)): 7.68
Fc1ccc2[nH]cc(CCCNCCOc3cccc4c3CCC4)c2c1 [Example 13a, [3-(5-Fluoro-1H-indol-3-yl)-propyl]-[2-(indan-4-yloxy)-ethyl]-amine] | – | – | – | 7.11 | 71 | –
c1ccc(OCCNCCCc2c[nH]c3ccccc23)cc1 [Example 13d, [3-(1H-indol-3-yl)-propyl]-[2-phenoxy-ethyl]-amine] | – | – | – | – | 26 | –
c1cc(OCCNCCc2c[nH]c3ccccc23)c2c(c1)OCCO2 [Example 6, [2-(2,3-Dihydrobenzo[1,4]dioxin-5-yloxy)-ethyl]-[2-(1H-indol-3-yl)-ethyl]-amine] | 100 | – | 7.92 | – | – | –
